Assay results taken from publication PMC5042873 (Journal of the American Chemical Society, 2016).

Key:
GLUT1 transporters = conditions: cited from earlier work
[1] = In vivo toxicity by body weight and general behavior; set-up: species or system Balb/c mice; conditions: 5 mg/kg, 4X in 8 days
[2] = tested on: GLUT1 expressing breast cancer (G1fpt); assay: In vivo antitumor efficacy, GLUT1 expressing breast cancer syngeneic model; set-up: species or system Balb/c mice; conditions: 5 mg/kg i.v. bolus, four treatments once every other day, 30 days

| SMILES | affinity for GLUT1 transporters relative to D-glucose (GLUT1 transporters) | body weight [1] | antitumor efficacy (tumor volume) [2] | tumors smaller compared to tumors in the PBS treated control group [2] |
| --- | --- | --- | --- | --- |
| O=[N+]([O-])c1ccc(NCC2OC(O)C(O)C(O)[C@@H]2O)c2nonc12 (stereo partly shown) [6-NBDG] | 300 fold | – | – | – |
| O=C1[O][Pt]2([NH][C@@H]3CCCC[C@H]3[NH]2)[O]C1=O [oxaliplatin] | – | reduced after the second dose but recovered to normal values | no statistically significant difference compared to the Glc-Pt 2 treated group | 10 times |
